Holding throughout (assay type): functional
For one experiment, the system named is MDA-MB-435. As to the kind of experiment: Growth inhibition of human MDA-MB-435 cells after 48 hrs by SRB assay. The conditions noted are these: MDA-MB-435, 48 h. For orientation: In SRB staining, fixed cells bind dye roughly in proportion to their protein.
A further experiment deals with SF-295. Nature of the experiment: Growth inhibition of human SF295 cells after 48 hrs by SRB assay. The note with it: SF-295, 48 h.
The next experiment concerns SK-MEL-28. As to the kind of experiment: Growth inhibition of human SK-MEL-28 cells after 48 hrs by SRB assay. The conditions noted are these: SK-MEL-28, 48 h.
The test system of a further experiment is K562. Nature of the experiment: Growth inhibition of human K562 cells after 48 hrs by SRB assay. The conditions noted are these: K562, 48 h.
In a further experiment the test system is NCI-H23. As to the kind of experiment: Growth inhibition of human NCI-H23 cells after 48 hrs by SRB assay. The note with it: NCI-H23, 48 h.
The test system of the next experiment is SW-620. Nature of the experiment: Growth inhibition of human SW620 cells after 48 hrs by SRB assay. The note with it: SW-620, 48 h.
The mark [1] stands for this setting: read-out: LC50 (the source's name).

From ChEMBL document CHEMBL1156714, “Microwave induced synthesis of novel 8,9-dihydro-7H-pyrimido[4,5-b][1,4]diazepines as potential antitumor agents” (2008) come the findings set out here.

Usually GI50 stands for the concentration giving 50% growth inhibition. A higher GI50 goes with lower sensitivity of the cells. The term LC50 denotes the concentration lethal to half of the exposed cells or organisms. With `Cc1ccc(C2=Nc3c(N)ncnc3NC(c3ccc4c(c3)OCO4)C2)cc1` (racemic), the concentration for 50% growth inhibition (GI50) in the experiment on MDA-MB-435 is 1.15 µM; in the experiment on SF-295, 4.98 µM; in the experiment on SK-MEL-28, 10.2 µM; with K562, 4.19 µM; in the experiment with NCI-H23, 10.2 µM; in the experiment with SW-620 it was 3.56 µM. Moreover, the CC50 in the experiment with MDA-MB-435 (setting [1]) was 90.8 µM; in the experiment on SK-MEL-28 (setting [1]) it was more than 100 µM; in the experiment on NCI-H23 (setting [1]), more than 100 µM; in the experiment on SW-620 (setting [1]) it was more than 100 µM. Also, the LC50 in the experiment on SF-295 and with K562 was more than 100 µM in each case.
